Assay results as given in publication PMC6399351, “Cationic Intrinsically Disordered Antimicrobial Peptides (CIDAMPs) Represent a New Paradigm of Innate Defense with a Potential for Novel Anti-Infectives” (Scientific Reports, 2019).
≈ marks a conversion by molar mass, not a printed value. Like-named read-outs stand apart in the source and are kept apart here. Square brackets hold non-standard residues; d marks the D form. Ends that are not written are not given here. Peptide text beside a SMILES is read from it. * marks the point of attachment. Palmitoyl = CCCCCCCCCCCCCCCC(=O)*; Myristoyl = CCCCCCCCCCCCCC(=O)*; Orn = NCCC[C@H](N)C(=O)O; Dab = NCC[C@H](N)C(=O)O; Dap = NC[C@H](N)C(=O)O

How the values were obtained:
[1] = test system: Pseudomonas aeruginosa ATCC 27853; assay: CO-ADD MIC, broth microdilution (CLSI); type: cell-based; details: Mueller–Hinton broth, 5 × 10^5 CFU/mL, 18 h 37 °C, by CO-ADD
From the text: (§1) They were defined as the lowest peptide
(§2) Further details of the screening

[2] = test system: Acinetobacter baumannii ATCC 19606; assay: CO-ADD MIC, broth microdilution (CLSI); type: cell-based; details: Mueller–Hinton broth, 5 × 10^5 CFU/mL, 18 h 37 °C, by CO-ADD
From the text: as §1, §2

[3] = test system: Klebsiella pneumonia ATCC 700603; details: MDR strain; CLSI, Mueller–Hinton broth, 5 × 10^5 CFU/mL, 18 h 37 °C, by CO-ADD
[4] = test system: S. aureus ATCC 6538; details: CFU assay, 10 mM NaP
[5] = test system: Candida albicans ATCC 90028; assay: CO-ADD MIC, antifungal assay (CLSI); type: cell-based; details: Yeast Nitrogen Base broth, 24 h 35 °C, by CO-ADD
Experimental: (§3) Fungi strains were cultured for 3 days on Yeast Extract-Peptone Dextrose (YPD) agar at 30 °C. A yeast suspension of 1 × 10^6 to 5 × 10^6 cells/mL (as determined by OD530) was prepared from five colonies. These stock suspensions were diluted with Yeast Nitrogen Base (YNB) broth to a final concentration of 2.5 × 10^3 CFU/mL. […] Plates were covered and incubated at 35 °C for 24 h without shaking.

[6] = test system: Cryptococcus neoformans ATCC 208821; assay: CO-ADD MIC, antifungal assay (CLSI); type: cell-based; details: Yeast Nitrogen Base broth, 24 h 35 °C, by CO-ADD
Experimental: as §3

[7] = test system: Staphylococcus aureus ATCC 43300; details: MRSA; CLSI, Mueller–Hinton broth, 5 × 10^5 CFU/mL, 18 h 37 °C, by CO-ADD
[8] = test system: E. coli ATCC 25922; assay: CO-ADD MIC, broth microdilution (CLSI); type: cell-based, Escherichia coli; details: Mueller–Hinton broth, 5 × 10^5 CFU/mL, 18 h 37 °C, by CO-ADD
From the text: as §1, §2

[9] = test system: P. aeruginosa ATCC 10145; details: CFU assay, 10 mM NaP, pH 5.5, 0.25% glucose

Molecule	Minimal inhibitory concentration (MIC) [1] [µg/mL]	Minimal inhibitory concentration (MIC) [2] [µg/mL]	Minimal inhibitory concentration (MIC) [3] [µg/mL]	LD90 ([4]; pH 5.5, 0.25% glucose) [µg/mL]	Minimal inhibitory concentration (MIC) [5] [µg/mL]	Minimal inhibitory concentration (MIC) [6] [µg/mL]	Minimal inhibitory concentration (MIC) [7] [µg/mL]	Minimal inhibitory concentration (MIC) [8] [µg/mL]	LD90 ([4]; pH 7.0, 0.25% glucose) [µg/mL]	LD100 ([4]; pH 5.5, 0.25% glucose) [µg/mL]	LD90 ([4]; pH 7.3, 1% TSB) [µg/mL]	LD100 ([4]; pH 7.3, 1% TSB) [µg/mL]	LD90 [9] [µg/mL]	LD100 [9] [µg/mL]
CCCCCCCCCCCCCCCC(=O)NCC(=O)N[C@@H](CN)C(=O)NCC(=O)N[C@@H](CN)C(=O)O [Pal-G-Dap4] (Palmitoyl-G[Dap]G[Dap]-OH)	>32	>32	>32	2.35	8 (≈ 14.7 µM)	1 (≈ 1.84 µM)	8 (≈ 14.7 µM)	>32	–	–	–	–	–	–
CCCCCCCCCCCCCCCC(=O)N[C@@H](CCCNC(=N)N)C(=O)NCC(=O)N[C@@H](CO)C(=O)N[C@@H](CCCNC(=N)N)C(=O)N[C@@H](CO)C(=O)NCC(=O)N[C@@H](CCC(N)=O)C(=O)N[C@@H](CO)C(=O)N[C@@H](CO)C(=O)N[C@@H](CCCNC(=N)N)C(=O)NCC(=O)N[C@@H](CCC(=O)O)C(=O)N[C@@H](CCCNC(=N)N)C(=O)N[C@@H](CCCNC(=N)N)C(=O)NCC(=O)N[C@@H](CO)C(=O)N[C@@H](CO)C(=O)N[C@@H](CO)C(=O)NCC(=O)N[C@@H](CO)C(=O)N[C@@H](CO)C(=O)N[C@@H](CO)C(=O)N[C@@H](CCCNC(=N)N)C(=O)O [Pal-HR-1-11-3H3R] (Palmitoyl-RGSRSGQSSRGERRGSSSGSSSR-OH)	>32	8 (≈ 3.07 µM)	>32	0.59	32 (≈ 12.3 µM)	32 (≈ 12.3 µM)	32 (≈ 12.3 µM)	32 (≈ 12.3 µM)	–	–	–	–	–	–
CCCCCCCCCCCCCCCC(=O)N[C@@H](CO)C(=O)N[C@@H](Cc1c[nH]cn1)C(=O)N[C@@H](Cc1c[nH]cn1)C(=O)N[C@@H](CCCNC(=N)N)C(=O)N[C@@H](Cc1c[nH]cn1)C(=O)N[C@@H](Cc1ccccc1)C(=O)N[C@@H](CCCNC(=N)N)C(=O)N[C@@H](CO)C(=O)N[C@@H](Cc1c[nH]cn1)C(=O)N[C@@H](CCC(N)=O)C(=O)N[C@@H](CS)C(=O)N[C@@H](CCCNC(=N)N)C(=O)N[C@@H](CCCNC(=N)N)C(=O)O [Pal-LCE-3C55-67] (Palmitoyl-SHHRHFRSHQCRR-OH)	>32	>32	>32	–	16 (≈ 8.07 µM)	1 (≈ 0.504 µM)	32 (≈ 16.1 µM)	>32	–	–	–	–	–	–
SHHRHFRSHQCRR [LCE-3C55-67]	>32	>32	>32	2.35	>32	8	32	>32	–	–	–	–	–	–
GRRGGRGGRGRGR [GR13]	>32	>32	>32	75	>32	>32	>32	>32	75	–	–	–	–	–
CCCCCCCCCCCCCCCC(=O)NCC(=O)N[C@@H](CCN)C(=O)NCC(=O)N[C@@H](CCN)C(=O)O [Pal-G-Dab4] (Palmitoyl-G[Dab]G[Dab]-OH)	>32	32 (≈ 56.1 µM)	>32	4.7	>32	16 (≈ 28 µM)	32 (≈ 56.1 µM)	>32	–	–	–	–	–	–
CCCCCCCCCCCCCCCC(=O)N[C@@H](Cc1c[nH]cn1)C(=O)NCC(=O)N[C@@H](CO)C(=O)N[C@@H](CCCNC(=N)N)C(=O)N[C@@H](CO)C(=O)NCC(=O)N[C@@H](CCC(N)=O)C(=O)N[C@@H](CO)C(=O)N[C@@H](CO)C(=O)N[C@@H](CCCNC(=N)N)C(=O)NCC(=O)N[C@@H](CCC(=O)O)C(=O)N[C@@H](CCCNC(=N)N)C(=O)N[C@@H](Cc1c[nH]cn1)C(=O)NCC(=O)N[C@@H](CO)C(=O)N[C@@H](CO)C(=O)N[C@@H](CO)C(=O)NCC(=O)N[C@@H](CO)C(=O)N[C@@H](CO)C(=O)N[C@@H](CO)C(=O)N[C@@H](Cc1c[nH]cn1)C(=O)O [Pal-HR 1-11] (Palmitoyl-HGSRSGQSSRGERHGSSSGSSSH-OH)	>32	>32	>32	2.35	>32	>32	32 (≈ 12.6 µM)	>32	–	–	–	–	–	–
CCCCCCCCCCCCCC(=O)NCC(=O)N[C@@H](CCCNC(=N)N)C(=O)N[C@@H](Cc1c[nH]cn1)C(=O)NCC(=O)N[C@@H](CO)C(=O)NCC(=O)N[C@@H](CC(C)C)C(=O)NCC(=O)N[C@@H](Cc1c[nH]cn1)C(=O)N[C@@H](CO)C(=O)N[C@@H](CO)C(=O)N[C@@H](CO)C(=O)N[C@@H](Cc1c[nH]cn1)C(=O)NCC(=O)N[C@@H](CCC(N)=O)C(=O)N[C@@H](Cc1c[nH]cn1)C(=O)NCC(=O)N[C@@H](CO)C(=O)NCC(=O)N[C@@H](CO)C(=O)NCC(=O)N[C@@H](CCCNC(=N)N)C(=O)O [Myr-HR 1-18] (Myristoyl-GRHGSGLGHSSSHGQHGSGSGR-OH; C-terminus assumed)	–	–	–	9.38	–	–	–	–	–	75	18.75	75	0.075	0.3
CCCCCCCCCCCCCCCC(=O)N[C@@H](CCCNC(=N)N)C(=O)NCC(=O)N[C@@H](CO)C(=O)N[C@@H](CCCNC(=N)N)C(=O)N[C@@H](CO)C(=O)NCC(=O)N[C@@H](CCC(N)=O)C(=O)N[C@@H](CO)C(=O)N[C@@H](CO)C(=O)N[C@@H](CCCNC(=N)N)C(=O)NCC(=O)N[C@@H](CCC(=O)O)C(=O)N[C@@H](CCCNC(=N)N)C(=O)N[C@@H](CCCNC(=N)N)C(=O)O [Pal-HR-1-11-2H2R-14] (Palmitoyl-RGSRSGQSSRGERR-OH)	>32	4 (≈ 2.2 µM)	>32	–	>32	8 (≈ 4.41 µM)	8 (≈ 4.41 µM)	8 (≈ 4.41 µM)	–	–	–	–	–	–
CCCCCCCCCCCCCCCC(=O)NCC(=O)N[C@H](CCCNC(=N)N)C(=O)N[C@H](CCCNC(=N)N)C(=O)NCC(=O)NCC(=O)N[C@H](CCCNC(=N)N)C(=O)NCC(=O)NCC(=O)N[C@H](CCCNC(=N)N)C(=O)O [(D)-Pal-GR9] (Palmitoyl-G[dR][dR]GG[dR]GG[dR]-OH; C-terminus assumed)	–	–	–	0.15	–	–	–	–	–	2.35	–	–	0.038	0.59
CCCCCCCCCCCCCCCC(=O)NCC(=O)N[C@@H](CCCN)C(=O)NCC(=O)N[C@@H](CCCN)C(=O)O [Pal-GO4] (Palmitoyl-G[Orn]G[Orn]-OH; C-terminus assumed)	–	–	–	9.38	–	–	–	–	–	–	–	–	2.35	18.75
CCCCCCCCCCCCCCCC(=O)NCC(=O)N[C@@H](CCCCN)C(=O)NCC(=O)N[C@@H](CCCCN)C(=O)O [Pal-GK4] (Palmitoyl-GKGK-OH; C-terminus assumed)	–	–	–	4.7	–	–	–	–	–	9.375	–	–	–	9.375
LRHGSGLGHSSSHGQHGSGSGR [HR 1-18-Leu]	–	–	–	300	–	–	–	–	–	> 300	–	–	4.7	–
HAHSGHGQSTQRGSRTAGR [FLG-22082-2100]	>32	>32	>32	–	>32	>32	>32	>32	–	–	–	–	0.038	–
CCCCCCCCCCCCCCCC(=O)NCC(=O)N[C@H](CCCNC(=N)N)C(=O)NCC(=O)N[C@H](CCCNC(=N)N)C(=O)O [Pal-(D)-GR4] (Palmitoyl-G[dR]G[dR]-OH; C-terminus assumed)	–	–	–	18.75	–	–	–	–	–	37.5	–	–	18.75	150
CCCCCCCCCCCCCCCC(=O)NCC(=O)N[C@@H](CCCN)C(=O)N[C@@H](CCCN)C(=O)NCC(=O)NCC(=O)N[C@@H](CCCN)C(=O)NCC(=O)NCC(=O)N[C@@H](CCCN)C(=O)NCC(=O)N[C@@H](CCCN)C(=O)NCC(=O)N[C@@H](CCCN)C(=O)O [Pal-Orn-GR13] (Palmitoyl-G[Orn][Orn]GG[Orn]GG[Orn]G[Orn]G[Orn]-OH; C-terminus assumed)	–	–	–	0.15	–	–	–	–	–	18.75	–	–	0.075	0.3
